These results are taken from PubChem BioAssay AID602267 (Broad Institute, 2012).

The source made the active and inactive calls.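 Rule for the calls: active = signal falls with dose and the fitted half-maximal concentration is at or below twice the top valid tested dose; inconclusive = flat curve with 30 to 70% inhibition, or poor fit; inactive = wrong direction, flat within 30%, or potency beyond limit.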

In the test the target is Golgi-associated PDZ and coiled-coil motif-containing protein (Homo sapiens) (UniProt Q9HD26). Kind of test: blockers of CAL PDZ ligand groove binding – biochemical, fluorescence polarization, untagged CAL PDZ, cherry-pick, dose response (AID 602267). The conditions noted are these: purified CAL PDZ, TMR-peptide fluorescence polarization, 1 h. (Fluorescence polarisation rises when a labelled molecule tumbles more slowly, as on binding a larger partner.)

Take `CCN(CC)S(=O)(=O)c1ccc(/C=C/C(=O)OCC(=O)N(C)C)cc1`: the “activity change, negative = inhibition” value (at 50 µM (top of the series)) was “inactive”.
Regarding `COc1ccc(N2CCN(C(=O)c3cccc4nc(C)oc34)CC2)cc1`, the “activity change, negative = inhibition” value (at 16 µM (top of the series)) is “inactive”.
Take `Cc1cccc(N=Nc2c(O)[nH]c3ccc(F)cc23)c1`: the “activity change, negative = inhibition” value (at 50 µM (top of the series)) is “inactive”.
The same measure, in the same setting: to `Cc1nc(Cl)sc1C(=O)Nc1cc(F)cc(F)c1` belongs “inactive”.
The same measure, in the same setting: to `CCOC(=O)c1nc(NCCc2ccccc2)sc1C` belongs “inactive”; to `O=c1c2cc3c(cc2[nH]c(=S)n1CCN1CCOCC1)OCO3`, “inactive”.
As to `CC(C)n1cc(C(=O)N2CCCC(N3CCN(c4ccc(F)cc4)CC3)C2)cn1` (configuration not stated), the “activity change, negative = inhibition” value (at 50 µM (top of the series)) is “inactive”.
On the same count and under the same terms, under `O=C(CCc1nc(-c2ccc(Cl)cc2)no1)NC1CCCCC1` stands “inactive”.
Turning to `O=C(OCC(=O)N1CCOCC1)c1ccc[nH]c1=O`, for the setting “at 16 µM (top of the series)”, the “activity change, negative = inhibition” value is “inactive”.
For the compound `Cc1ccc2nc(NS(C)(=O)=O)sc2c1`, for the setting “at 50 µM (top of the series)”, the “activity change, negative = inhibition” value is “inactive”.
On the same count and under the same terms, to `CCN(CC)S(=O)(=O)c1cc(C(=O)Oc2ccccc2OC)ccc1OC` belongs “inactive”; to `Cc1ccc2nc3c(nc2c1)-c1ccccc1C3=O`, “inactive”; to `COc1ccc(C(=O)c2ccc(C)cc2)c(OC)c1OC`, “inactive”.
Still for that read-out and setting: under `N=c1c(S(=O)(=O)c2ccc(Cl)cc2)cc2c(=O)n3ccccc3nc2n1C1CCCCC1` stands “inactive”.
With `COc1cc(OC)cc(C(=O)N[C@H](C(=O)Nc2nc3ccc(S(C)(=O)=O)cc3s2)C(C)C)c1`, for the setting “at 50 µM (top of the series)”, the “activity change, negative = inhibition” value is “inactive”.
On the same count and under the same terms, under `C=CCOc1ccc2ccccc2c1CNn1cn[nH]c1=S` stands “inactive”; under `Cc1ccnc(SCC(=O)N2CCC(C(N)=O)CC2)n1`, “inactive”; under `CCOc1ccccc1CN1CCC(n2nccc2NC(=O)C2CCCC2)CC1`, “inactive”.
`C/C(=C/c1ccccc1)C(=O)N1CCN(c2ccccc2)CC1`: where the note is “at 50 µM (top of the series)”, the “activity change, negative = inhibition” value was “inactive”.
Take `CCc1ccc(S(=O)(=O)/N=C2/C=C(Sc3ncn[nH]3)C(=O)c3ccccc32)cc1`: the AC50 (as a rule, the concentration giving half of the maximal activity seen) is 16.4 µM.
Turning to `CC(C)(C)c1nn(-c2ccccc2)c2[nH]c(=O)c(C=O)cc12`, for the setting “at 50 µM (top of the series)”, the “activity change, negative = inhibition” value was “inactive”.
In the case of `Cc1ccc(Cl)c2c(N=Nc3ccccc3)c(O)[nH]c12`, the “activity change, negative = inhibition” value (at 50 µM (top of the series)) is “inactive”.
As to `O=C(Nc1cccc(F)c1)c1ccco1`, for the setting “at 50 µM (top of the series)”, the “activity change, negative = inhibition” value is “inactive”.
As for `O=C(CN1CC[n+]2c(-c3cccs3)csc21)c1ccc(-c2ccccc2)cc1`, the “activity change, negative = inhibition” value (at 50 µM (top of the series)) is “inactive”.
For `O=C1CN(C(=O)CC2C(=O)NCCN2Cc2ccccc2C(F)(F)F)CCN1` (configuration not stated), the “activity change, negative = inhibition” value (at 50 µM (top of the series)) is “inactive”.
Turning to `COc1cc([N+](=O)[O-])ccc1NC(=O)CN1CCN(C(=O)c2ccco2)CC1`, the “activity change, negative = inhibition” value (at 50 µM (top of the series)) is “inactive”.
As for `Cc1ccccc1N1CCN(S(=O)(=O)c2ccccc2)CC1`, the “activity change, negative = inhibition” value (at 50 µM (top of the series)) is “inactive”.
Take `COc1ccccc1NC(=O)c1c([N+](=O)[O-])cnn1C`: where the note is “at 50 µM (top of the series)”, the “activity change, negative = inhibition” value was “inactive”.
For `O=C(NNC(=O)c1c(F)cccc1F)c1sccc1-n1cccc1`, for the setting “at 50 µM (top of the series)”, the “activity change, negative = inhibition” value is “inactive”.
Still for that read-out and setting: to `O=C1c2ccccc2C(O)N1c1ccccc1` (configuration not stated) belongs “inactive”; to `COc1ccc(NC(=O)c2cnn(-c3ccccc3)c2C)c(OC)c1`, “inactive”.
For the compound `O=C(O)CSc1cc(NS(=O)(=O)c2ccc(Br)cc2)c2ccccc2c1O`, the AC50 was 29.7 µM.
With `Cc1ccc(CN(Cc2cccnc2)C(=S)Nc2cccc(Cl)c2C)cc1`, where the note is “at 50 µM (top of the series)”, the “activity change, negative = inhibition” value was “inactive”.
For `CC1=C(C#N)C(=O)NC(=O)/C1=C\c1ccc(-c2cc(C)c(C)cc2[N+](=O)[O-])o1`, the “activity change, negative = inhibition” value (at 50 µM (top of the series)) is “inactive”.
The same measure, in the same setting: to `CCOC(=O)c1ccc(N=C2SC(C(=O)NC)CC(=O)N2Cc2ccc(F)cc2)cc1` (configuration not stated) belongs “inactive”.
In the case of `O=C(NC12CC3CC(CC(C3)C1)C2)c1ccco1`, the “activity change, negative = inhibition” value (at 50 µM (top of the series)) is “inactive”.
For `CCOC(=O)C1(CCOc2ccccc2)CCN(CC(O)CO)CC1` (configuration not stated), for the setting “at 50 µM (top of the series)”, the “activity change, negative = inhibition” value is “inactive”.
On the same count and under the same terms, under `CN1CC(=O)N(CC(=O)Nc2ccc(Br)cc2F)C1=O` stands “inactive”.
`Oc1ccc(/C=N\Nc2nncc(-c3ccccc3)n2)cc1`: the “activity change, negative = inhibition” value (at 50 µM (top of the series)) is “inactive”.
Still for that read-out and setting: to `c1ccc(C(c2ccccc2)c2cccnc2)cc1` belongs “inactive”; to `O=[N+]([O-])c1ccc(N/N=C/c2cccnc2)cc1`, “inactive”.
In the case of `CCCOc1ccc(S(=O)(=O)Nc2ccccn2)c2ccccc12`, under “at 50 µM (top of the series)”, the “activity change, negative = inhibition” value is “inactive”.
Still for that read-out and setting: to `COc1ccc(C(=O)Nc2nccs2)cc1` belongs “inactive”.
On the same count and under the same terms, under `C(=N\N1CCOCC1)/c1nc(-c2ccccc2)n2ccccc12` stands “inactive”.
On the same count and under the same terms, to `O=C(O)CC1(CC(=O)Nc2ccc(Br)cc2)CCCCC1` belongs “inactive”; to `COc1ccc(CCn2c(=S)[nH]c3ccc(N4CCOCC4)cc3c2=O)cc1OC`, “inactive”; to `CCn1ncc(Br)c1C(=O)Nc1cccc(F)c1`, “inactive”.
For the compound `Nc1ccc(N(CCO)CCO)cc1`, the “activity change, negative = inhibition” value (at 50 µM (top of the series)) is “inactive”.
For `CCCc1cc2c(cc1NC(=O)c1ccco1)OCO2`, the “activity change, negative = inhibition” value (at 50 µM (top of the series)) is “inactive”.
Still for that read-out and setting: to `CC(C)CNC(=O)COC(=O)CCC(=O)c1ccc(Cl)cc1` belongs “inactive”.
With `Cc1cc(NC(=O)CSc2nnc(-c3ccccc3)c(-c3ccccc3)n2)no1`, the “activity change, negative = inhibition” value (at 50 µM (top of the series)) is “inactive”.
As to `O=C(CN(Cc1ccccc1)S(=O)(=O)c1ccc(F)cc1)NCCC1=CCCCC1`, where the note is “at 50 µM (top of the series)”, the “activity change, negative = inhibition” value is “inactive”.
On to `COc1cc(/C=C2\C(=O)NC(=O)N(c3ccccc3)C2=O)c([N+](=O)[O-])cc1OC`, for which the “activity change, negative = inhibition” value (at 50 µM (top of the series)) is “inactive”.
Consider `CC(=O)Nc1ccc(Nc2ccc3nonc3c2[N+](=O)[O-])cc1`, for which the “activity change, negative = inhibition” value (at 50 µM (top of the series)) is “inactive”.
Consider `N/C(=N\OC(=O)Cc1ccccc1[N+](=O)[O-])c1cccnc1`, for which, where the note is “at 50 µM (top of the series)”, the “activity change, negative = inhibition” value is “inactive”.
Same read-out and setting: to `COc1ccc(CC(=O)NNC(=O)CCc2ccccc2)cc1OC` belongs “inactive”; to `Cc1cc(C)nc(/N=C(\N)N2CCc3ccccc32)n1`, “inactive”; to `NC(=O)C1CCN(c2ncccc2[N+](=O)[O-])CC1`, “inactive”.
Still for that read-out and setting: to `CC(C)OC(=O)C1CC(C)(O)C(=O)C(C(=O)OC(C)C)C1c1ccc([N+](=O)[O-])cc1` (configuration not stated) belongs “inactive”; to `Cc1ccc(S(=O)(=O)N2CCN(C(=O)c3cc(=O)c4ccccc4o3)CC2)cc1`, “inactive”.
For the compound `COc1ccc2c(c1)c(=Cc1ccc(N(C)C)cc1)c1cc(-c3ccccc3)[n+](C)n12`, the “activity change, negative = inhibition” value (at 16 µM (top of the series)) is “inactive”.
`CCOC(=O)NC(=O)COC(=O)CCCSc1nc2ccccc2s1`: the “activity change, negative = inhibition” value (at 50 µM (top of the series)) is “inactive”.
